This is an account of results in US8088574B2, “Poly(A) polymerase” (Wisconsin Alumni Research Foundation, priority 2007, dated 2012).

The test system of one data set is HO-1 mRNA. In words: quantitative real-time PCR of HO-1 mRNA in HEK 293 cells. To be noted: HEK 293 cells pretreated with CKI inhibitor (IC261 50 μM, CKI-7 250 μM, 2.5 h). (In general: Quantitative PCR measures a nucleic acid by following its amplification.)
The target of data set [1] is Star-PAP complex-associated kinase activity (CKI). To be noted: printed beside inhibitor name/vendor and in FIG. 23 legend; inhibitors used at 0.1-100 μM on FLAG-Star-PAP complex; cited from earlier work.
The subject of data set [2] is T1, Star-PAP complex-associated kinase activity (CKI).
T1 construct: other: PI4,5P2 micelles, 12.5-100 μM; phosphorylation of Star-PAP by the complex-associated kinase activity; Flag-Star-PAP and FLAG-PAPα were expressed in HEK 293 cells and purified on anti-FLAG M2 resin
Description: in vitro protein kinase assay of purified FLAG-Star-PAP complex: phosphorylation of Star-PAP by the complex-associated kinase activity. Format: biochemical, Human. Particulars: for phosphorylation of Star-PAP by the complex-associated kinase activity: inhibitor 0.1-100 μM, 45 minutes on ice before ATP.
Description: Synthetic PI4,5P2 (Echelon Biosciences Inc.) was resuspended in 50 mM Tris-HCL pH 7.9 at 2.5 mM and subjected to bath sonication to form micelles and used at final concentration of 12.5-100 μM.
The kinase assays were performed as described above in section 8 for the Star-PAP complexes. Except for inhibitor studies, all reaction components except ATP were incubated with inhibitors for 45 minutes on ice prior to starting the assay.

The next data set addresses T2, CKIα (Rattus norvegicus, UniProt P97633).
T2 construct: made in house; host or cells: HEK 293 cells
T2 sequence (P97633 1-325): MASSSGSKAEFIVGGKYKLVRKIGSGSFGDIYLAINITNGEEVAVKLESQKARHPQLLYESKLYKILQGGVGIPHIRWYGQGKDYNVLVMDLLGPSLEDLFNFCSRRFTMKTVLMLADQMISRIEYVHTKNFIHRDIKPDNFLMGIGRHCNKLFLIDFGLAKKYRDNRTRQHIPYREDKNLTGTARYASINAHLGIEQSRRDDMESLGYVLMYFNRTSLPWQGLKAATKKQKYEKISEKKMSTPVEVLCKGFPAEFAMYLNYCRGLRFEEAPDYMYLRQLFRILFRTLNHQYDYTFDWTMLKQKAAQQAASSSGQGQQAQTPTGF
Description: in vitro phosphorylation of heat inactivated FLAG-Star-PAP by purified FLAG-CKIα. Format: biochemical. To be noted: 50 μM. As for the experimental part:
Flag-Star-PAP and FLAG-PAPα were expressed in HEK 293 cells and purified on anti-FLAG M2 resin. Purified PAP complexes were subject to an in vitro protein kinase assay as follows. Protein kinase assays were performed in 1× kinase buffer (50 mM Tris-HCl pH 7.5, 10 mM MgCl2 and 0.5 mM EGTA). Assays were initiated by the addition of 10 μM ATP and 5 μCi γ^32P ATP to the reaction mix. Substrates included 100 μg/ml of the generic protein kinase substrates myelin basic protein (MBP) or casein. Heat inactivation of the endogenous kinase activity in the Star-PAP complex was destroyed by heating for 15 minutes at 65° C. The Star-PAP purified complex contained protein kinase activity toward both MBP and casein while the PAPα complex contained almost no detectable protein kinase activity (FIG. 19).
Casein Kinase Iα (CKIα), is a protein kinase found in nuclear speckles; moreover, CKIα activity is inhibited by PI4,5P2. […] FLAG proteins were expressed and purified as follows. Human Star-PAP and rat CKIα cDNAs were cloned in to the pFLAG-1 mammalian expression vector (Sigma). […]
Before the phosphorylation assay, endogenous kinase activity in the FLAG complex was destroyed by heat inactivation; no detectable phosphorylation activity was detected after heat inactivation. […]

In a further data set the target is T3, Star-PAP complex (Homo sapiens, UniProt Q9H6E5, D66G).
T3 construct: made in house; host or cells: HEK-293 cells stably expressing FLAG-Star-PAP, treated with tBHQ before purification
T3 sequence (Q9H6E5 1-874 D66G): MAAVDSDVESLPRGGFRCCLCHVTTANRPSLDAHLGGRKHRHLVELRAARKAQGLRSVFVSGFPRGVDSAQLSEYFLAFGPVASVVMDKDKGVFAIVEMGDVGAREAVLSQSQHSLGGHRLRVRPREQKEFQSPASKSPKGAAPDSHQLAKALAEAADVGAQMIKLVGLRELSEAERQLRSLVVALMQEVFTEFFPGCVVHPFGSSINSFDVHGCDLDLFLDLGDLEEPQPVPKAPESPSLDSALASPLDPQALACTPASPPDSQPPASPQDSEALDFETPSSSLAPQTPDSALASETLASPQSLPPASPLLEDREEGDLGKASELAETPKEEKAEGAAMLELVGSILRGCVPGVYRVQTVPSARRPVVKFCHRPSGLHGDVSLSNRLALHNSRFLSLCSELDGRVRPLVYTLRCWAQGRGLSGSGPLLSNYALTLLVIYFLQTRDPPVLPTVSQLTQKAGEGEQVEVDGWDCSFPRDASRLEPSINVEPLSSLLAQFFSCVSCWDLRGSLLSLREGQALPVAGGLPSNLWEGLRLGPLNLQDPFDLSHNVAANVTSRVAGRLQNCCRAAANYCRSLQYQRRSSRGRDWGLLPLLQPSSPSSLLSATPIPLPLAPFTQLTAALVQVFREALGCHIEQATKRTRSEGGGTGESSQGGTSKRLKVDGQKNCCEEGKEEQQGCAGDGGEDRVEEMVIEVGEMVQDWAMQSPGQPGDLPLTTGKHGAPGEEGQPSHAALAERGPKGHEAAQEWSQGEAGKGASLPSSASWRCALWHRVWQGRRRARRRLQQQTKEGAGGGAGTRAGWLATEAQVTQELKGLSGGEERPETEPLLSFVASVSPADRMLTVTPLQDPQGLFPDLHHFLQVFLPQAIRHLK
Description: PAP assay with Star-PAP complex purified from stably expressing HEK-293 cells treated with tBHQ. Format: cell-based. An excerpt:
Treatment of cells with tBHQ caused a large increase in Star-PAP complex activity for the initiation of polyadenylation. […] PI4,5P2 produced by PIPKIα in the complex may then control the processivity of Star-PAP, resulting in a lengthened poly(A) tail. In this manner Star-PAP may respond to oxidative stress signals, and potential other signals, to efficiently regulate the 3′ end formation and polyadenylation by the Star-PAP complex.

Data set [3] has as its target yeast canonical poly(A) polymerase (Saccharomyces cerevisiae, UniProt P29468). In words: in vitro poly(A) polymerase assay with yeast canonical poly(A) polymerase control. Format: biochemical. To be noted: (UAGGGA)5A15 primer. The source says: (§1) As another example, a specific 45 nt RNA oligonucleotide (UAGGGA)5A15 (SEQ ID NO: 22) was designed to serve as an RNA substrate in the poly(A) polymerase assay.

A further data set addresses T4, Star-PAP (Homo sapiens, UniProt Q9H6E5, D66G).
T4 construct: full length His-Star-PAP was purified over a Ni^++ or glutathione columns; His; T7 tag; made in house; host or cells: E. coli BL21(DE3)
T4 sequence (Q9H6E5 1-874 D66G): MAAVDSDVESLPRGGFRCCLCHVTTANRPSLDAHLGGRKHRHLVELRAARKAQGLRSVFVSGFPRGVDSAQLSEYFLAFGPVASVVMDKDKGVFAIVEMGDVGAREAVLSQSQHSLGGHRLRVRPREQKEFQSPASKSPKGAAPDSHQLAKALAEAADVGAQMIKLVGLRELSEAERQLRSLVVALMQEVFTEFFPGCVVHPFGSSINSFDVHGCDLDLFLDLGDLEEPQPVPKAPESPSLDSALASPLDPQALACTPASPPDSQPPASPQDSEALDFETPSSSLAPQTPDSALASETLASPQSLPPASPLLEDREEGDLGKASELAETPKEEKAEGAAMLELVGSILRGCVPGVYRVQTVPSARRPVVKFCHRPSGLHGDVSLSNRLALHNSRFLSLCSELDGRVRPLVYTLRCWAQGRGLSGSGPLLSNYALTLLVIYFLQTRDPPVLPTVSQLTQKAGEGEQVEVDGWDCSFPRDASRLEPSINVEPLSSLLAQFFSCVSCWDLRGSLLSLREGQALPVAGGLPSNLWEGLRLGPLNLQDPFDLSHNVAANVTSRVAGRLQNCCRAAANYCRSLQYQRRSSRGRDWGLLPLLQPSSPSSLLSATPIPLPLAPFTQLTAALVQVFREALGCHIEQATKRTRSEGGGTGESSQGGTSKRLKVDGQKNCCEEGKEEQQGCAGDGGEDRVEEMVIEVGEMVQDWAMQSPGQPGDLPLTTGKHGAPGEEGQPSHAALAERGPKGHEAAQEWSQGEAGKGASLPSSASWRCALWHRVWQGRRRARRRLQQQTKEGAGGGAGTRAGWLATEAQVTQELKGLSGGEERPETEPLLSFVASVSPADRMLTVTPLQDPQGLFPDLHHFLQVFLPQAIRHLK
In words: in vitro poly(A) polymerase assay with Star-PAP. Format: biochemical.
From the text: The poly(A) polymerase activity of PIP-PAPs such as Star-PAP, natural or artificial variants, homologues or fragments thereof may be tested by methods known in the art. (See e.g., Kyriakopoulou et al., (2001) J Biol Chem, 276:33504-11).
as §1
Because Star-PAP associates with the PI4,5P2 generating enzyme PIPKIα; the effect of exogenous phosphoinositides on the in vitro poly(A) polymerase activity of Star-PAP was evaluated. Star-PAP was incubated in the presence of various phosphoinositides (PI, PI3P, PI4P, PI5P, PI3,4P2, PI3,5P2, PI4,5P2 and PI3,4,5P3) or buffer only as a control. Following a brief incubation period the remaining components of the assay were added and allowed to react. In the absence of any phosphoinositide species, Star-PAP was able to extend an RNA primer to generate a modest poly(A) tail. In the presence of PI4,5P2 the incorporation of ATP into poly(A) tails was enhanced. […] This effect was specific for PI4,5P2 as all other inositol phospholipids assayed had no effect on Star-PAP activity in this assay.

The target in another data set is PAPα (Homo sapiens, UniProt P51003). In words: in vitro poly(A) polymerase assay with PAPα. Format: biochemical. Particulars: 50 μM inositol phospholipid micelles.

“Also recorded” adds a separate entry of the source.

Chain of PAPα (P51003 whole entry): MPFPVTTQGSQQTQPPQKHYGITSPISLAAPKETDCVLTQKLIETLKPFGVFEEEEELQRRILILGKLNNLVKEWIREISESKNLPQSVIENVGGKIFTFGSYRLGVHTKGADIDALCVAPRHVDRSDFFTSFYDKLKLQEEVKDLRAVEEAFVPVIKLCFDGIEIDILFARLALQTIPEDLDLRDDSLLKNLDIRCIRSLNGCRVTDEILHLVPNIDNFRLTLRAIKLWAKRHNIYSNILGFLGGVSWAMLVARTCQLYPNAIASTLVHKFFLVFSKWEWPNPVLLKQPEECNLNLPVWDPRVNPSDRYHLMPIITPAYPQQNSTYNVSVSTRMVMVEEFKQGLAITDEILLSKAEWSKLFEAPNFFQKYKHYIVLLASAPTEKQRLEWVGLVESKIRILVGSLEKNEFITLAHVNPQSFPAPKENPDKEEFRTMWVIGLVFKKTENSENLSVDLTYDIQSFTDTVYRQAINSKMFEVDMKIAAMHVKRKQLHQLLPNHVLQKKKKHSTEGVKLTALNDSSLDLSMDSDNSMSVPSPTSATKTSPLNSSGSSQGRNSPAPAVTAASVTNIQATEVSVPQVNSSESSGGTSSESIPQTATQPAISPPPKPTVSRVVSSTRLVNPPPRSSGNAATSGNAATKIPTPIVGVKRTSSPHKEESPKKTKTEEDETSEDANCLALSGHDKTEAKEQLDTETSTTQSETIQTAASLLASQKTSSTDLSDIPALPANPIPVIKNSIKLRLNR
Chain of yeast canonical poly(A) polymerase (P29468 whole entry): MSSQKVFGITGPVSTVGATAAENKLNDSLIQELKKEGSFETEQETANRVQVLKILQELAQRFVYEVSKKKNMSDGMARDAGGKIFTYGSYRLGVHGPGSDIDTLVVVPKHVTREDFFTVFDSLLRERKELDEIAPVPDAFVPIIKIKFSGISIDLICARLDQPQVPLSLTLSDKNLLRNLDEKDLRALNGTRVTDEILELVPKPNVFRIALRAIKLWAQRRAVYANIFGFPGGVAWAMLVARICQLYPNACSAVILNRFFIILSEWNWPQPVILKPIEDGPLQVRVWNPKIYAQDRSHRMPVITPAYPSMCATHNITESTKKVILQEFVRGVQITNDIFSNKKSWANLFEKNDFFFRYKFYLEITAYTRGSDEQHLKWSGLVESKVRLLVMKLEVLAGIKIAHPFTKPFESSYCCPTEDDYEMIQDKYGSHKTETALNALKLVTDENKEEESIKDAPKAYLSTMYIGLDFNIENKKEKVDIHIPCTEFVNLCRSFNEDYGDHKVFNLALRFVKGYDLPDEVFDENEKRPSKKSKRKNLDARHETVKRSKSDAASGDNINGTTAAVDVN

As usually defined, the IC50 is the concentration needed to halve the response being measured. On to `NCCNS(=O)(=O)c1ccc(Cl)c2ccncc12` [CKI-7], for which the “basal levels of HO-1 mRNA” value in the data set with HO-1 mRNA is on record as “reduce HO-1”. In addition, in data set [1], the IC50 was roughly 6 µM. Further, the “phosphorylation of Star-PAP by the complex-associated kinase activity” value in data set [2] is reported as “block the phosphorylation of Star-PAP by the complex-associated kinase activity in a dose dependent fashion”.

As for `COc1cc(OC)c(C=C2C(O)=Nc3ccccc32)c(OC)c1` [IC261], the “phosphorylation of Star-PAP by CKIα” value at CKIα was “blocked; also recorded: can block CKIα phosphorylation of Star-PAP”. For the same molecule, the “basal levels of HO-1 mRNA” value in the data set on HO-1 mRNA was “reduce HO-1”. Also, the IC50 in data set [1] is 11 µM. Further, the “phosphorylation of Star-PAP by the complex-associated kinase activity” value in data set [2] is given as “block the phosphorylation of Star-PAP by the complex-associated kinase activity in a dose dependent fashion”.

`CC(C)(C)c1cc(O)ccc1O` [tBHQ, tert-butylhydroquinone]: the “increase in enzymatic activity of Star-PAP complex over Star-PAP from control cells” value on Star-PAP complex (cells treated with 100 μM tBHQ) is “more than 15 fold”.

With cordycepin triphosphate, the “yeast canonical poly(A) polymerase activity with chain terminator” value in data set [3] is listed as “inhibited in a dose dependent fashion”. Moreover, at Star-PAP ((UAGGGA)5A15 primer), the “Star-PAP poly(A) polymerase activity with chain terminator” value is “inhibited in a dose dependent fashion”.

Turning to “phosphatidylinositol-4,5-bisphosphate [PI4,5P2]”, at Star-PAP (50 μM inositol phospholipid micelles), the “effect of phosphoinositide on Star-PAP poly(A) polymerase activity (incorporation of ATP into poly(A) tails)” value is listed as “enhanced”. For the same molecule, at CKIα, the “phosphorylation of Star-PAP by CKIα” value is recorded as “blocked; also recorded: can block CKIα phosphorylation of Star-PAP”. The “Star-PAP processivity (length of the poly(A) tails)” value on Star-PAP complex (Star-PAP isolated from tBHQ-treated cells, time course) is listed as “stimulated Star-PAP processivity, increasing the length of the poly(A) tails”. For the same molecule, on PAPα, the “effect of phosphoinositide on PAPα activity” value is on record as “no phosphoinositides tested, including PI4,5P2 stimulated the activity of PAPα”. The “concentration at which phosphorylation of FLAG-Star-PAP was inhibited (as low as)” value in data set [2] (PI4,5P2 micelles, 12.5-100 μM) came out at 12.5 µM.

B1: Star-PAP: novel PIP-regulated poly(A) polymerase, SEQ ID NO: 2 (protein, listed as Homo sapiens)
chain: MAAVDSDVESLPRGGFRCCLCHVTTANRPSLDAHLGGRKHRHLVELRAARKAQGLRSVFVSGFPRGVDSAQLSEYFLAFGPVASVVMDKDKGVFAIVEMGDVGAREAVLSQSQHSLGGHRLRVRPREQKEFQSPASKSPKGAAPDSHQLAKALAEAADVGAQMIKLVGLRELSEAERQLRSLVVALMQEVFTEFFPGCVVHPFGSSINSFDVHGCDLDLFLDLGDLEEPQPVPKAPESPSLDSALASPLDPQALACTPASPPDSQPPASPQDSEALDFETPSSSLAPQTPDSALASETLASPQSLPPASPLLEDREEGDLGKASELAETPKEEKAEGAAMLELVGSILRGCVPGVYRVQTVPSARRPVVKFCHRPSGLHGDVSLSNRLALHNSRFLSLCSELDGRVRPLVYTLRCWAQGRGLSGSGPLLSNYALTLLVIYFLQTRDPPVLPTVSQLTQKAGEGEQVEVDGWDCSFPRDASRLEPSINVEPLSSLLAQFFSCVSCWDLRGSLLSLREGQALPVAGGLPSNLWEGLRLGPLNLQDPFDLSHNVAANVTSRVAGRLQNCCRAAANYCRSLQYQRRSSRGRDWGLLPLLQPSSPSSLLSATPIPLPLAPFTQLTAALVQVFREALGCHIEQATKRTRSEGGGTGESSQGGTSKRLKVDGQKNCCEEGKEEQQGCAGDGGEDRVEEMVIEVGEMVQDWAMQSPGQPGDLPLTTGKHGAPGEEGQPSHAALAERGPKGHEAAQEWSQGEAGKGASLPSSASWRCALWHRVWQGRRRARRRLQQQTKEGAGGGAGTRAGWLATEAQVTQELKGLSGGEERPETEPLLSFVASVSPADRMLTVTPLQDPQGLFPDLHHFLQVFLPQAIRHLK
Regarding B1, the “specific poly(A) polymerase activity relative to canonical PAPα” value with Star-PAP (side-by-side with PAPα) was found to be 1.3 fold.
